Values after ≈ are worked out from the molar mass of the structure shown.
Key:
[1] = Permeability of the compound in human Caco-2 cells assessed as compound recovery at 10 uM measured after 2 hrs by LC/MS/MS analysis; assay type: ADME, cell-based; conditions: read-out: Drug recovery
[2] = Drug metabolism in rat liver microsome assessed as reduction of aldehyde group at 10 mM measured after 15 mins in presence of NADPH by LC-MS analysis; assay type: ADME; conditions: microsomes, 10000 µM
[3] = Drug metabolism in human liver microsome assessed as reduction of aldehyde group at 10 mM measured after 15 mins in presence of NADPH by LC-MS analysis; assay type: ADME; conditions: microsomes, 10000 µM
[4] = Aqueous solubility of compound at pH 6.8; assay type: physicochemical; conditions: buffer, time 15 min
[5] = Half-life in Crl:CD (SD) rat at 1 mg/kg, iv or 3 mg/kg, po measured upto 24 hrs by LC-MS/MS analysis; assay type: ADME, organism-based; conditions: in vivo
[6] = Volume of distribution at steady state in Crl:CD (SD) rat at 1 mg/kg, iv or 3 mg/kg, po measured upto 24 hrs by LC-MS/MS analysis; assay type: ADME, organism-based; conditions: in vivo, read-out: Vdss
[7] = Clearance in Crl:CD (SD) rat at 1 mg/kg, iv or 3 mg/kg, po measured up to 24 hrs by LC-MS/MS analysis; assay type: ADME, organism-based; conditions: in vivo
[8] = Oral bioavailability in Crl:CD (SD) rat at 3 mg/kg measured upto 24 hrs by LC-MS/MS analysis; assay type: ADME, organism-based; conditions: Crl:CD (SD), in vivo
[9] = Thermodynamic solubility of compound in phosphate buffer at pH 6.8 measured after 15 mins by shake-flask method based LC-HRMS analysis; assay type: physicochemical; conditions: read-out: Therm_solubility
[10] = Dose normalized AUC in Crl:CD (SD) rat at 3 mg/kg, po measured up to 24 hrs by LC-MS/MS analysis; assay type: ADME, organism-based; conditions: in vivo
[11] = Dose normalized AUC in Crl:CD (SD) rat at 1 mg/kg, iv measured up to 24 hrs by LC-MS/MS analysis; assay type: ADME, organism-based; conditions: in vivo
[12] = Lipophilicity, log D of the compound in 1-octanol at pH 7.4 by potentiometric titration method; assay type: physicochemical
[13] = Oral bioavailability in Crl:CD (SD) rat at 3 mg/kg administered as nanosuspension formulated in CMC-5/Tween 80 measured up to 24 hrs by LC-MS/MS analysis; assay type: ADME, organism-based; conditions: in vivo

recovery at 2 h, 10 µM [1] [%]	Drug metabolism [2]	Drug metabolism [3]	other results	Structure (SMILES)
< 10	Metabolite_Detected	Metabolite_Detected	–	CN(C)Cc1cc2c(nc1C=O)N(C(=O)Nc1ccc(C#N)cn1)CCC2
< 10	Metabolite_Detected	Metabolite_Detected	–	C=CC(=O)Nc1ccccc1C(=O)Nc1cc(CCc2cc(OC)cc(OC)c2)[nH]n1
–	–	–	solubility at […] [4]: 18 µM (≈ 7.06 µg/mL)	CC(=O)N(C)Cc1cc2c(nc1C=O)N(C(=O)Nc1ccc(C#N)cn1)CCC2
< 10	Metabolite_Detected	Metabolite_Detected	–	COCCOc1cc(NC(=O)N2CCCc3cc(COC)c(C=O)nc32)ncc1C#N
< 10	Metabolite_Detected	Metabolite_Detected	–	COCCOc1cc(NC(=O)N2CCCc3cc(C(F)F)c(C=O)nc32)ncc1C#N
< 10	Metabolite_Detected	Metabolite_Detected	half-life [5]: 2 h; Vd [6]: 2.5 L/kg; clearance [7]: 52 mL/min/kg; bioavailability [8]: 24%; solubility thermodynamic at […] [9]: 11 µM (≈ 4.53 µg/mL); AUC/dose [10]: 194 nM·h	COCCOc1cc(NC(=O)N2CCCc3cc(CO)c(C=O)nc32)ncc1C#N
< 10	Metabolite_Detected	Metabolite_Detected	–	COCCNc1cc(NC(=O)N(CCOC)c2cccc(C=O)n2)ncc1C#N
< 10	Metabolite_Detected	Metabolite_Detected	–	Cc1cc2c(nc1C=O)N(C(=O)Nc1ccc(C#N)cn1)CCC2
< 10	Metabolite_Detected	Metabolite_Detected	–	COCCOc1cc(NC(=O)N2CCCc3ccc(C=O)nc32)ncc1C#N
< 10	Metabolite_Detected	Metabolite_Detected	–	CC1(O)CCN(c2cc(NC(=O)N3CCCc4ccc(C=O)nc43)ncc2C#N)CC1
–	–	–	clearance [7]: 19 mL/min/kg	COC[C@H](C)Nc1cc(NC(=O)N2CCCc3cc(CN4CCN(C)CC4=O)c(C=O)nc32)ncc1C#N
< 10	Metabolite_Detected	Metabolite_Detected	–	O=Cc1nc2c(C(=O)Nc3ccc(C(F)(F)F)cn3)cccc2cc1O
< 10	Metabolite_Detected	Metabolite_Detected	–	COCCNc1cc(NC(=O)N2CCCc3cc(C4CCN(C5COC5)CC4)c(C=O)nc32)ncc1C#N
< 10	Metabolite_Detected	Metabolite_Detected	–	COCCOc1cc(NC(=O)N2CCCc3cc(C(F)(F)F)c(C=O)nc32)ncc1C#N
< 10	Metabolite_Detected	Metabolite_Detected	–	COCCNc1cc(NC(=O)N2CCCc3cc(-c4cccnc4)c(C=O)nc32)ncc1C#N
< 10	Metabolite_Detected	Metabolite_Detected	–	N#Cc1cnc(NC(=O)N2CCCc3cc(CO)c(C=O)nc32)cc1O[C@H]1CCOC1
< 10	Metabolite_Detected	Metabolite_Detected	–	N#Cc1cnc(NC(=O)N2CCCc3ccc(C=O)nc32)cn1
< 10	Metabolite_Detected	Metabolite_Detected	–	O=Cc1ccc2c(n1)N(C(=O)Nc1ccc(C(F)(F)F)cn1)CCO2
–	–	–	half-life [5]: 27.7 h; Vd [6]: 8.6 L/kg; clearance [7]: 16 mL/min/kg; bioavailability [8]: 26%; solubility thermodynamic at […] [9]: 8 µM (≈ 3.72 µg/mL); AUC/dose [10]: 599 nM·h; AUC/dose [11]: 2307 nM·h	COCCNc1cc(NC(=O)N2CCCc3cc(CN(C)C(C)=O)c(C=O)nc32)ncc1C#N
< 10	Metabolite_Detected	Metabolite_Detected	–	N#Cc1cnc(NC(=O)N2CCCc3cc(CO)c(C=O)nc32)cc1O[C@@H]1CCOC1
< 10	Metabolite_Detected	Metabolite_Detected	–	COCCOc1cc(NC(=O)N2CCCc3cc(Br)c(C=O)nc32)ncc1C#N
< 10	Metabolite_Detected	Metabolite_Detected	logD [12]: 4.2; solubility thermodynamic at […] [9]: 4.9 µM (≈ 1.72 µg/mL)	O=Cc1ccc2c(n1)N(C(=O)Nc1ccc(C(F)(F)F)cn1)CCC2

recovery at 2 h, 10 µM [1] [%]	Drug metabolism [2]	Drug metabolism [3]	other results	Structure (SMILES)
< 10	Metabolite_Detected	Metabolite_Detected	bioavailability [13]: 80%; half-life [5]: 2.3 h; Vd [6]: 4.7 L/kg; clearance [7]: 40 mL/min/kg; bioavailability [8]: 7%; solubility thermodynamic at […] [9]: < 6 µM; AUC/dose [10]: 774 nM·h; AUC/dose [11]: 964 nM·h	COCCNc1cc(NC(=O)N2CCCc3cc(C(F)F)c(C=O)nc32)ncc1C#N
< 10	Metabolite_Detected	Metabolite_Detected	–	N#Cc1ccc(NC(=O)N2CCCc3cc(Cl)c(C=O)nc32)nc1
–	–	–	clearance [7]: 88 mL/min/kg	COCCNc1cc(NC(=O)N(C)c2ccc(CN3CCN(C)CC3=O)c(C=O)n2)ncc1C#N
< 10	Metabolite_Detected	Metabolite_Detected	–	N#Cc1ccc(NC(=O)N2CCCc3cc(CC(=O)O)c(C=O)nc32)nc1
< 10	Metabolite_Detected	Metabolite_Detected	–	COc1cc2c(nc1C=O)N(C(=O)Nc1ccc(C#N)cn1)CCC2
< 10	Metabolite_Detected	Metabolite_Detected	–	N#Cc1ccc(NC(=O)N2CCCc3cc(C4CC4)c(C=O)nc32)nc1
< 10	Metabolite_Detected	Metabolite_Detected	–	COCCNc1cc(NC(=O)N(C)c2cccc(C=O)n2)ncc1C#N
< 10	Metabolite_Detected	Metabolite_Detected	–	CCN1CCN(c2ccc(Nc3cc(N(C)C(=O)Nc4c(Cl)c(OC)cc(OC)c4Cl)ncn3)cc2)CC1 [INFIGRATINIB]
< 10	Metabolite_Detected	Metabolite_Detected	–	N#Cc1ccc(NC(=O)N2CCCc3cc(N)c(C=O)nc32)nc1
< 10	Metabolite_Detected	Metabolite_Detected	solubility at […] [4]: < 4 µM	COCCNc1cc(NC(=O)N2CCCc3cc(-n4cnc(C)c4)c(C=O)nc32)ncc1C#N
–	–	–	solubility thermodynamic at […] [9]: < 2.9 µM	O=Cc1ccc2cccc(C(=O)Nc3ccc(C(F)(F)F)cn3)c2n1
< 10	Metabolite_Detected	Metabolite_Detected	–	N#Cc1ccc(NC(=O)N2CCCCc3ccc(C=O)nc32)nc1
< 10	Metabolite_Detected	Metabolite_Detected	–	COCCNc1cc(NC(=O)N2CCCc3cc(C4CCOCC4)c(C=O)nc32)ncc1C#N
< 10	Metabolite_Detected	Metabolite_Detected	–	COCCNc1cc(NC(=O)N2CCCc3cc(N4CCOCC4=O)c(C=O)nc32)ncc1C#N
< 10	Metabolite_Detected	Metabolite_Detected	–	CC(C)Oc1cc(NC(=O)N2CCCc3ccc(C=O)nc32)ncc1C#N
< 10	Metabolite_Detected	Metabolite_Detected	–	CC(C)COc1cc(N2CCC(N(C)C)CC2)ccc1Nc1ncc(C#N)c(N[C@H]2[C@@H](C(N)=O)[C@@H]3C=C[C@H]2C3)n1
< 10	Metabolite_Detected	Metabolite_Detected	half-life [5]: 3.5 h; Vd [6]: 1.5 L/kg; clearance [7]: 8 mL/min/kg; bioavailability [8]: 46%; solubility thermodynamic at […] [9]: < 6 µM; solubility at […] [4]: < 4 µM; AUC/dose [10]: 2174 nM·h; AUC/dose [11]: 4703 nM·h	COCCNc1cc(NC(=O)N2CCCc3cc(-c4cnc(C)s4)c(C=O)nc32)ncc1C#N
< 10	Metabolite_Detected	Metabolite_Detected	–	CC(C)Oc1cc(NC(=O)N2CCc3ccc(C=O)nc32)ncc1C#N
< 10	Metabolite_Detected	Metabolite_Detected	–	COCCNc1cc(NC(=O)N2CCCc3cc(-c4ccnn4C)c(C=O)nc32)ncc1C#N
–	–	–	clearance [7]: 35 mL/min/kg	COC[C@@H](C)Nc1cc(NC(=O)N2CCCc3cc(CN4CCN(C)CC4=O)c(C=O)nc32)ncc1C#N
< 10	Metabolite_Detected	Metabolite_Detected	–	N#Cc1ccc(NC(=O)N2CCCc3cc(CO)c(C=O)nc32)nc1

From ChEMBL document CHEMBL4715854, “Discovery of Roblitinib (FGF401) as a Reversible-Covalent Inhibitor of the Kinase Activity of Fibroblast Growth Factor Receptor 4” (J Med Chem, 2020)
